Publication PMC3265452 (PLoS Neglected Tropical Diseases, 2012)
Where a name gives a salt, the structure may show the parent alone. Read-outs that look alike come from different tables or passages of the source.

Biological target: AaDOP2 (Aedes aegypti, UniProt H6D5H2)
Assay: AaDOP2 antagonist screen of the LOPAC1280 library (HEK-CRELuc-Aadop2 cells, luminescence)
Type: cell-based
[1] = 10 µM compound, 300 nM dopamine, 2 hr, hit = compound effect <20

Sequence of AaDOP2 (H6D5H2 1-476): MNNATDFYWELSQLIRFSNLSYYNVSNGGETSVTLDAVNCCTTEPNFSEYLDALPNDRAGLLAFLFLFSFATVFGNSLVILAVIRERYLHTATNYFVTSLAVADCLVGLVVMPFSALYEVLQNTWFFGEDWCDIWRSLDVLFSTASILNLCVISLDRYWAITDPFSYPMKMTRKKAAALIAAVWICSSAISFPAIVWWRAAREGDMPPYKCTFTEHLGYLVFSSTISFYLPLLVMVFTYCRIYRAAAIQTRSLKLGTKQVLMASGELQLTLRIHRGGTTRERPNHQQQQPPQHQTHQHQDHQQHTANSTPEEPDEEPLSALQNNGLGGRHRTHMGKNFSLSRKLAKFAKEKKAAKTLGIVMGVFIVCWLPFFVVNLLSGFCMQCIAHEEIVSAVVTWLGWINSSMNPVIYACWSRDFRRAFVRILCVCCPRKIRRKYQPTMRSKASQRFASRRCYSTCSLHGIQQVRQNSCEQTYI

SMILES	Compound effect (percent receptor signaling in presence of test compound, relative lux units relative to the SCH23390 control)	Compound effect (percent receptor signaling in presence of test compound, relative lux units relative to the SCH23390 control) [1] [%]
CN1CCC(c2c[nH]c3ccc(O)cc23)CC1.O=C(O)/C=C\C(=O)O [Compound 213, BRL 54443 maleate]	80	–
CC(N)Cc1c[nH]c2ccc(OCc3cccs3)cc12 (centres unmarked) [Compound 214, BW 723C86]	92	–
O=C(O)CCCc1ccc(N(CCCl)CCCl)cc1 [Compound 215, Chlorambucil]	106	–
C[N+](C)(C)CCOP(=O)([O-])OP(=O)([O-])OC[C@H]1O[C@@H](n2ccc(N)nc2=O)[C@H](O)[C@@H]1O.[Na+] [Compound 216, Citicoline sodium]	91	–
CC(C)(Oc1ccc(C2CC2(Cl)Cl)cc1)C(=O)O (centres unmarked) [Compound 217, Ciprofibrate]	97	–
COc1cc2c(CCNC(C)=O)c[nH]c2cc1Cl [Compound 218, 6-Chloromelatonin]	–	90
O=NN(CCCl)C(=O)NCCCl [Compound 219, Carmustine]	82	–
CCC(C)N(C)C(=O)c1cc2ccccc2c(-c2ccccc2Cl)n1 (centres unmarked) [Compound 220, PK 11195]	84	–
O=C(O)/C=C/c1ccc(O)c(O)c1 [Compound 221, Caffeic Acid]	114	–
O=C1CCc2cc(OCCCCc3nnnn3C3CCCCC3)ccc2N1 [Compound 222, Cilostazol]	108	–
O=P1(N(CCCl)CCCl)NCCCO1 (centres unmarked) [Compound 224, Cyclophosphamide monohydrate]	83	–
CC(C)(CO)Cc1cc(C(C)(C)C)c(O)c(C(C)(C)C)c1 [Compound 225, CGP-7930]	89	–
CC(C)(C=O)Cc1cc(C(C)(C)C)c(O)c(C(C)(C)C)c1 [Compound 226, CGP-13501]	98	–
CCCCCCC(C)(C)c1ccc([C@@H]2C[C@H](O)CC[C@H]2CCCO)c(O)c1 [Compound 227, CP55940]	85	–
N[C@H]1CON=C1O [Compound 228, L-Cycloserine]	88	–
O=S(=O)(c1cccc2c(Cl)cccc12)N1CCCNCC1 [Compound 229, ML-9]	102	–
CCCNC(=O)NS(=O)(=O)c1ccc(Cl)cc1 [Compound 231, Chlorpropamide]	98	–
COc1ccc2c(c1)c(CC(=O)O)c(C)n2Cc1ccc(Cl)cc1 [Compound 232, 1-(4-Chlorobenzyl)-5-methoxy-2-methylindole-3-acetic acid]	77	–
C[N+](C)(C)CCO.[Br-] [Compound 234, Choline bromide]	89	–
NC(=O)c1cc(N2CC2)c([N+](=O)[O-])cc1[N+](=O)[O-] [Compound 236, CB 1954]	81	–
Cl.Cl.NCCC(=O)NCCc1cnc[nH]1 [Compound 237, Carcinine dihydrochloride]	–	95
C[C@]12C[C@H](O)[C@H]3[C@@H](CCC4=CC(=O)CC[C@@]43C)[C@@H]1CC[C@@H]2C(=O)CO [Compound 238, Corticosterone]	87	–
N.N.O=C([O-])C1(C(=O)[O-])CCC1.[Pt+2] [Compound 239, Carboplatin]	83	–
C[C@]12CCC(=O)C=C1CC[C@@H]1[C@@H]2C(=O)C[C@@]2(C)[C@H]1CC[C@]2(O)C(=O)CO [Compound 240, Cortisone]	–	86
COc1ccc2c(c[n+](C)c3c4cc5c(cc4ccc23)OCO5)c1OC [Compound 241, Chelerythrine chloride]	112	–
Clc1ccc(C(c2ccccc2Cl)C(Cl)Cl)cc1 (centres unmarked) [Compound 242, 1-(2-Chlorophenyl)-1-(4-chlorophenyl)-2,2-dichloroethane]	108	–
CC(=O)OCC(=O)[C@@]1(O)CC[C@H]2[C@@H]3CCC4=CC(=O)CC[C@]4(C)[C@H]3C(=O)C[C@@]21C [Compound 244, Cortisone 21-acetate]	110	–

SMILES	Compound effect (percent receptor signaling in presence of test compound, relative lux units relative to the SCH23390 control)	Compound effect (percent receptor signaling in presence of test compound, relative lux units relative to the SCH23390 control) [1] [%]
CCn1cnc2c(Nc3cccc(Cl)c3)nc(N[C@@H]3CCCC[C@@H]3N)nc21.Cl [Compound 246, CGP-74514A hydrochloride]	99	–
CC(=O)O[C@]1(C(C)=O)CC[C@H]2[C@@H]3C=C(Cl)C4=CC(=O)[C@@H]5C[C@@H]5[C@]4(C)[C@H]3CC[C@@]21C [Compound 247, Cyproterone acetate]	115	–
N[C@@H]1CON=C1O [Compound 250, D-Cycloserine]	91	–
Clc1ccc(C(c2ccc(Cl)cc2)n2cc[n+](CC(OCc3ccc(Cl)cc3Cl)c3ccc(Cl)cc3Cl)c2)cc1 (centres unmarked) [Compound 252, Calmidazolium chloride]	44	–
Cn1cc(C(=O)OCC2CCN(CCNS(C)(=O)=O)CC2)c2ccccc21 [Compound 253, GR 113808]	97	–
NC(=O)N1c2ccccc2C=Cc2ccccc21 [Compound 254, Carbamazepine]	75	–
C[C@H](CS)C(=O)N1CCC[C@H]1C(=O)O [Compound 255, Captopril]	112	–
CCc1cccc(N(C)C(N)=Nc2cccc3ccccc23)c1 [Compound 256, CNS-1102]	107	–
C[N+](C)(C)CCOC(N)=O [Compound 257, Carbachol]	99	–
N[C@@H](CS(=O)O)C(=O)O [Compound 259, L-Cysteinesulfinic Acid]	116	–
Nc1ncnc2c1ncn2C1CCCC1 [Compound 260, 9-cyclopentyladenine]	116	–
CC(=O)OCC1=C(C(=O)O)N2C(=O)[C@@H](NC(=O)Cc3cccs3)[C@H]2SC1 [Compound 261, Cephalothin sodium]	92	–
CN/C(=N/CCSCc1nc[nH]c1C)NC#N [Compound 262, Cimetidine]	88	–
CN(C)CCC=C1c2ccccc2C=Cc2ccccc21 [Compound 263, Cyclobenzaprine hydrochloride]	106	–
CCN(CC)CCOCCOC(=O)C1(c2ccccc2)CCCC1 [Compound 264, Carbetapentane citrate]	93	–
CC1=C(C(=O)O)N2C(=O)[C@@H](NC(=O)[C@H](N)c3ccccc3)[C@H]2SC1.O [Compound 265, Cephalexin hydrate]	–	87
CN(C)CC[C@@H](c1ccc(Cl)cc1)c1ccccn1 [Compound 267, (+)-Chlorpheniramine maleate]	106	–
Cc1nnc(SCC2=C(C(=O)O)N3C(=O)[C@@H](NC(=O)Cn4cnnn4)[C@H]3SC2)s1 [Compound 268, Cefazolin sodium]	96	–
Cl.Clc1ccc(Cn2c(CN3CCCC3)nc3ccccc32)cc1 [Compound 269, Clemizole hydrochloride]	96	–
Nc1nc(Cl)nc2c1ncn2[C@@H]1O[C@H](CO)[C@@H](O)[C@H]1O [Compound 270, 2-Chloroadenosine]	118	–
CC(C[N+](C)(C)C)OC(N)=O (centres unmarked) [Compound 271, Bethanechol chloride]	116	–
Cl.Cl.Clc1cccc(N2CCNCC2)c1 [Compound 273, 1-(3-Chlorophenyl)piperazine dihydrochloride]	99	–
Cc1cc(NC(=O)Nc2ccc3c(ccn3C)c2)sn1 [Compound 274, SB 204741]	95	–
CO/N=C(\C(=O)N[C@@H]1C(=O)N2C(C(=O)O)=C(CSc3nc(=O)c(=O)[nH]n3C)CS[C@H]12)c1csc(N)n1 [Compound 275, Ceftriaxone sodium]	97	–
O=C(O)c1cc[c]([Hg][Cl])cc1 [Compound 276, 4-Chloromercuribenzoic acid]	96	–
CN1C(=O)CC[C@H]1c1cccnc1 [Compound 277, (-)-Cotinine]	96	–
